{"source": "paper PMC4226840", "about": "“An open-label study to determine the maximum tolerated dose of the multitargeted tyrosine kinase inhibitor CEP-11981 in patients with advanced cancer” (Investigational New Drugs, 2014)", "key": {"[1]": {"test_system": "proto-oncogene c-SRC", "design": "method as in PMID 22148921", "conditions": "cited from earlier work"}, "[2]": {"test_system": "advanced, relapsed/refractory solid tumors", "assay": "Tumor response (RECIST) in phase I patients", "type": "in vivo, human", "source_text": "The primary measures were MTD and DLTs. MTD was defined as the highest dose at which one-third or fewer of patients in a cohort experienced a DLT, which included grade ≥ 2 proteinuria, grade ≥ 3 nonhematologic toxicity (excluding hypertension and pain), grade ≥ 3 thrombocytopenia with bleeding, or grade 4 hematologic toxicity that was not clearly due to progressive cancer. Secondary measures included the pharmacokinetics of CEP-11981 after a single dose and multiple doses, the pharmacokinetic-pharmacodynamic profile of CEP-11981, safety, and preliminary efficacy. The efficacy endpoint was the proportion of patients who achieved complete or partial response on study (minimum of 6 weeks) according to Response Evaluation Criteria in Solid Tumors (RECIST) guidelines."}, "[3]": {"conditions": "of 37 patients evaluated for tumor response"}}}
{"substance": "11-(2-methylpropyl)-12,13-dihydro-2-methyl-8-(pyrimidin-2-ylamino)-4H-indazolo[5,4-a]pyrrolo[3,4-c]carbazol-4-one [CEP-11981]", "values": [{"measurement": "IC50", "setting": "[1]", "value": 37, "unit": "nM"}, {"measurement": "Complete or partial response (RECIST)", "setting": "[2]; all cohorts", "value": "no enrolled patients had complete or partial response"}, {"measurement": "Frequency of stable disease", "setting": "[2]; cohorts receiving ≤ 55.0 mg/m^2 (11 of 29 patients)", "value": 37.9, "unit": "%"}, {"measurement": "Frequency of stable disease", "setting": "[2]; cohorts receiving ≥ 73.0 mg/m^2 (8 of 14 patients)", "value": 57.1, "unit": "%"}, {"measurement": "Patients with stable disease at ≥ 6 weeks", "setting": "[2]; intent-to-treat population (19 of 43 patients)", "value": 44, "unit": "%"}, {"measurement": "Patients with disease progression", "setting": "[2]; [3]", "value": 18, "unit": "patients"}, {"measurement": "Patients with stable disease at ≥ 6 weeks", "setting": "[2]; [3]", "value": 51, "unit": "%"}]}
